From PMC9218960 (ACS infectious diseases, 2020) come the findings set out here.

What all share (experiment): [3H]uridine uptake inhibition by purines in PfENT1-SNP-expressing yeast
Holding throughout (format): cell-based

One test deals with T1, PfENT1 I418M (Plasmodium falciparum, UniProt Q8IDM6, I418M).
T1 sequence (Q8IDM6 1-422 I418M): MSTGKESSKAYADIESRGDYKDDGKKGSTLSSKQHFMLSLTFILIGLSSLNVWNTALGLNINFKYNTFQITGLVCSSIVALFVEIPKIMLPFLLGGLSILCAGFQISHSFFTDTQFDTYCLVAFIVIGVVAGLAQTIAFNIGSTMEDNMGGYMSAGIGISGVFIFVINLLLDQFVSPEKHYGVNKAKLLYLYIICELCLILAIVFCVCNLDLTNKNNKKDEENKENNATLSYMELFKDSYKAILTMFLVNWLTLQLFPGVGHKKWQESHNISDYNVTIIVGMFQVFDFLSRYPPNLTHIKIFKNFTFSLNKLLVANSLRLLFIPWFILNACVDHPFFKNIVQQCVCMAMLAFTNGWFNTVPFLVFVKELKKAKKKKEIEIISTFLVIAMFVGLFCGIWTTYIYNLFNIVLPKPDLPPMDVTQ

Another test concerns the target T2, PfENT1 S317T (Plasmodium falciparum, UniProt Q8IDM6, S317T).
T2 sequence (Q8IDM6 1-422 S317T): T1 sequence (Q8IDM6 1-422 I418M) with S317T, M418I

The target of a further test is T3, PfENT1 V129I/L133F (Plasmodium falciparum, UniProt Q8IDM6, L133F/V129I).
T3 sequence (Q8IDM6 1-422 V129I/L133F): T1 sequence (Q8IDM6 1-422 I418M) with V129I, L133F, M418I

For a further test, the target named is T4, PfENT1 F92I (Plasmodium falciparum, UniProt Q8IDM6, F92I).
T4 sequence (Q8IDM6 1-422 F92I): T1 sequence (Q8IDM6 1-422 I418M) with F92I, M418I

The target of a further test is T5, PfENT1 L385I (Plasmodium falciparum, UniProt Q8IDM6, L385I).
T5 sequence (Q8IDM6 1-422 L385I): T1 sequence (Q8IDM6 1-422 I418M) with L385I, M418I

A further test concerns the target T6, PfENT1 F36S (Plasmodium falciparum, UniProt Q8IDM6, F36S).
T6 sequence (Q8IDM6 1-422 F36S): T1 sequence (Q8IDM6 1-422 I418M) with F36S, M418I

Where a chain is given by its changes, count along the chain named.

For `Nc1ncnc2nc[nH]c12` [Adenine, adenine], the IC50 on PfENT1 I418M was determined as 221 ± 36 µM; at PfENT1 S317T, 205 ± 49 µM; against PfENT1 V129I/L133F it was 930 ± 285 µM; against PfENT1 F92I, 176 ± 35 µM; at PfENT1 L385I, 185 ± 15 µM; at PfENT1 F36S, 292 ± 21 µM.

Regarding `O=c1[nH]cnc2nc[nH]c12` [Hypoxanthine, hypoxanthine], the IC50 at PfENT1 I418M stood at 145 ± 7 µM; against PfENT1 S317T it was 175 ± 31 µM; against PfENT1 V129I/L133F, 360 ± 66 µM; at PfENT1 F92I, 207 ± 34 µM; at PfENT1 L385I, 173 ± 46 µM; against PfENT1 F36S, 171 ± 25 µM.

On to `OC[C@H]1O[C@@H](n2cnc3c(O)ncnc32)[C@H](O)[C@@H]1O` [Inosine, inosine], for which the IC50 came to 12 ± 2 µM on PfENT1 I418M; 28 ± 2 µM on PfENT1 S317T; 20 ± 7 µM at PfENT1 V129I/L133F; 51 ± 14 µM against PfENT1 F92I; 58 ± 17 µM at PfENT1 L385I; 24 ± 7 µM on PfENT1 F36S.

What is called IC50 is the concentration that gives 50% inhibition. Low readings indicate greater potency in that assay, high ones weaker potency in that assay.
